Assay results: patent publication US20050234065A1, “Dipeptidyl peptidase-IV inhibitors” (Pfizer Inc, priority 2004, published 2005)
Like-named read-outs stand apart in the source and are kept apart here.

Target: T1, DPP-IV (Homo sapiens, UniProt P27487)
T1 construct: purchased Enzyme Systems Products SPE-01
Test: In vitro assay for dipeptidyl peptidase inhibition
Assay type: biochemical
Conditions: hydrochloride salts, Gly-Pro-4-methoxy B naphthylamide substrate, overnight at 37° C.
Protocol: 150 μL of an enzyme-substrate solution was pipetted into microtiter wells of a polystyrene 96-well plate, and maintained at 4° C. The enzyme-substrate solution comprised 50 μM Gly-Pro-4-methoxy B naphthylamide HCl in 50 mM Tris assay buffer pH 7.3 containing 0.1M sodium chloride, 0.1% (v/v) Triton and 50 μU/mL DPP-IV (Enzyme Systems Products Cat#SPE-01, DPP-IV 5 mU/mL stock). 5 μL/well of compounds of Formula (I) were added, bringing the final compound of Formula (I) concentrations to 3 μM-10 nM per well.
Controls. Enzyme was omitted from four (4) wells, as a reagent blank. 5 μL of 3 mM Diprotin A was added to four wells as a positive quality control, providing a final Diprotin A concentration of 100 μM. To measure total enzyme activity (i.e. a negative control), without the influence of any compounds of Formula (I), 5 μL of distilled water was added to four wells.
The entire assay was incubated overnight (about 14-18 hours) at 37° C.

[1] = read-out: IC50 (concentration of test compound required for 50% inhibition)
[2] = read-out: IC50 (concentration of test compound required for 50% inhibition), bound given in μM

T1 sequence (P27487 whole entry, species assumed): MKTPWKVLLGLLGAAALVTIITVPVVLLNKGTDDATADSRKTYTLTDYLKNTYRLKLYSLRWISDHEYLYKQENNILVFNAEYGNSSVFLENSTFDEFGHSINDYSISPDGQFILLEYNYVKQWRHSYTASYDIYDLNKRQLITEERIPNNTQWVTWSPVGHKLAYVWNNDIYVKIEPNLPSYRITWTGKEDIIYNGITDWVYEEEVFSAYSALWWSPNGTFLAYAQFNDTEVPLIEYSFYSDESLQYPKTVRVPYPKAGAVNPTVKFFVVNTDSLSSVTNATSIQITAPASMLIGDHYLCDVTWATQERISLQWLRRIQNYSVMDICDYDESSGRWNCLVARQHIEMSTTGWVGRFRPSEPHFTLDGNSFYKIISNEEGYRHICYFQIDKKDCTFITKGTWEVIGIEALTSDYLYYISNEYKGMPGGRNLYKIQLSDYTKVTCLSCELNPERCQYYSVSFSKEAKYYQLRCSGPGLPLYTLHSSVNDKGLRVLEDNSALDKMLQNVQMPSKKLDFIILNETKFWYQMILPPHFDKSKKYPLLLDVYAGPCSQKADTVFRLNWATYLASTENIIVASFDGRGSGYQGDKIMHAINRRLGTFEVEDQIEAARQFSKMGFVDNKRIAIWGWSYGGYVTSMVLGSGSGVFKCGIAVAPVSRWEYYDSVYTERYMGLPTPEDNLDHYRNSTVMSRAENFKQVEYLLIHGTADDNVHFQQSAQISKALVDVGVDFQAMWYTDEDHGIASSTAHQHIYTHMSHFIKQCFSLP

Row | SMILES | IC50 [1] [µM] | IC50 [2] [µM]
1 | N[C@H](C(=O)N1CCCC1)[C@H]1CC[C@@H](NC(=O)CNC(=O)c2ccccc2)CC1 [Example 1, N-{[cis-4-((1S)-1-amino-2-oxo-2-pyrrolidin-1-yl-ethyl)-cyclohexylcarbamoyl]-methyl}-benzamide] | > 0.5 | –
2 | N[C@H](C(=O)N1CCCC1)[C@H]1CC[C@@H](NC(=O)[C@@H]2CNC(=O)N2C(=O)OCc2ccccc2)CC1 [Example 7, (5S)-5-[cis-4-((1S)-1-amino-2-oxo-2-pyrrolidin-1-yl-ethyl)-cyclohexylcarbamoyl]-2-oxo-imidazolidine-1-carboxylic acid benzyl ester] | > 0.5 | ≤ 1
3 | N[C@H](C(=O)N1CCCC1)[C@H]1CC[C@H](NC(=O)[C@H]2COCN2C(=O)OCc2ccccc2)CC1 [Example 8, (4R)-4-[trans-4-((1S)-1-amino-2-oxo-2-pyrrolidin-1-yl-ethyl)-cyclohexylcarbamoyl]-oxazolidine-3-carboxylic acid benzyl ester] | 0.1 to 0.5 | –
4 | N[C@H](C(=O)N1CCCC1)[C@H]1CC[C@H](NC(=O)[C@@H]2CNC(=O)N2C(=O)OCc2ccccc2)CC1 [Example 9, (5S)-5-[trans-4-((1S)-1-amino-2-oxo-2-pyrrolidin-1-yl-ethyl)-cyclohexylcarbamoyl]-2-oxo-imidazolidine-1-carboxylic acid benzyl ester] | ≤ 0.1 | –
5 | N[C@H](C(=O)N1CCCC1)[C@H]1CC[C@H](NC(=O)CC[C@H]2C(=O)OCN2C(=O)OCc2ccccc2)CC1 [Example 10, (4S)-4-{2-[trans-4-((1S-)-1-amino-2-oxo-2-pyrrolidin-1-yl-ethyl)-cyclohexylcarbamoyl]-ethyl}-5-oxo-oxazolidine-3-carboxylic acid benzyl ester] | ≤ 0.1 | –
6 | N[C@H](C(=O)N1CCCC1)[C@H]1CC[C@H](NC(=O)[C@@H]2COCN2C(=O)OCc2ccccc2)CC1 [Example 11, (4S)-4-[trans-4-((1S)-1-amino-2-oxo-2-pyrrolidin-1-yl-ethyl)-cyclohexylcarbamoyl]-oxazolidine-3-carboxylic acid benzyl ester] | ≤ 0.1 | –
7 | CN(C(=O)OCc1ccccc1)C(C)(C)C(=O)N[C@H]1CC[C@H]([C@H](N)C(=O)N2CCCC2)CC1 [Example 17, (S)-{1-[trans-4-(1-amino-2-oxo-2-pyrrolidin-1-yl-ethyl)-cyclohexylcarbamoyl]-1-methyl-ethyl)-methyl-carbamic acid benzyl ester] | 0.1 to 0.5 | –
8 | N[C@H](C(=O)N1CCCC1)[C@H]1CC[C@H](NC(=O)CN2C(=O)c3ccccc3/C2=C\c2ccccc2)CC1 [Example 20, N-[trans-4-(1-(1S)-amino-2-oxo-2-pyrrolidin-1-yl-ethyl)-cyclohexyl]-2-(1-benzylidene-3-oxo-1,3-dihydro-isoindol-2-yl)-acetamide] | ≤ 0.1 | –
9 | NC(C(=O)N1CCCC1)C1CCC(NC(=O)C2CC(O)CN2)CC1 [Example 21, (1S,4R)-4-hydroxy-pyrrolidine-2-carboxylic acid [trans-4-((1S)-1-amino-2-oxo-2-pyrrolidin-1-yl-ethyl)-cyclohexyl]-amide] | 0.1 to 0.5 | –
10 | N[C@H](C(=O)N1CCCC1)[C@H]1CC[C@H](N2C(=O)c3nccnc3C2=O)CC1 [Example 22, 6-[trans-4-((1S)-1-amino-2-oxo-2-pyrrolidin-1-yl-ethyl)-cyclohexyl]-pyrrolo[3,4-b]pyrazine-5,7-dione] | ≤ 0.1 | –
11 | N[C@H](C(=O)N1CCCC1)[C@H]1CC[C@H](N2C(=O)c3cccnc3C2=O)CC1 [Example 24, 6-[trans-4-((1S)-1-amino-2-oxo-2-pyrrolidin-1-yl-ethyl)-cyclohexyl]-pyrrolo[3,4-b]pyridine-5,7-dione] | ≤ 0.1 | –
12 | N[C@H](C(=O)N1CCCC1)[C@H]1CC[C@H](N2C(=O)O[C@@H](c3ccccc3)C2=O)CC1 [Example 28, 3-[trans-4-((1S)-1-amino-2-oxo-2-pyrrolidin-1-yl-ethyl)-cyclohexyl]-(5S)-5-phenyl-oxazolidine-2,4-dione] | 0.1 to 0.5 | –
13 | N[C@H](C(=O)N1CCC(F)(F)C1)[C@H]1CC[C@H](NC(=O)[C@@H]2CNC(=O)N2C(=O)OCc2ccccc2)CC1 [Example 29, (5S)-5-{trans-4-[(1S)-1-amino-2-(3,3-difluoro-pyrrolidin-1-yl)-2-oxo-ethyl]-cyclohexylcarbamoyl}-2-oxo-imidazolidine-1-carboxylic acid benzyl ester] | ≤ 0.1 | –
14 | N[C@H](C(=O)N1CCC(F)(F)C1)[C@H]1CC[C@H](NC(=O)[C@@H]2C[C@@H](O)CN2C(=O)OCc2ccccc2)CC1 [Example 31, 2-{trans-4-[1-(1S)-amino-2-(3,3-difluoro-pyrrolidin-1-yl)-2-oxo-ethyl]-cyclohexylcarbamoyl}-(4R)-4-hydroxy-pyrrolidine-1-carboxylic acid benzyl ester] | ≤ 0.1 | –

The next lines start with the values.

Row | IC50 [1] [µM] | IC50 [2] [µM] | SMILES
15 | 0.1 to 0.5 | – | N[C@H](C(=O)N1CCCC1)[C@H]1CC[C@@H](NC(=O)CCC2C(=O)OCN2C(=O)OCc2ccccc2)CC1 (stereo in doubt) [Example 4, (4S)-4-{2-[cis-4-((1S)-1-amino-2-oxo-2-pyrrolidin-1-yl-ethyl)-cyclohexylcarbamoyl]-ethyl}-5-oxo-oxazolidine-3-carboxylic acid benzyl ester]
16 | > 0.5 | – | N[C@H](C(=O)N1CCCC1)[C@H]1CC[C@@H](NC(=O)CNC(=O)OCc2ccccc2)CC1 [Example 2, {[cis-4-((1S)-1-amino-2-oxo-2-pyrrolidin-1-yl-ethyl)-cyclohexylcarbamoyl]-methyl}-carbamic acid benzyl ester]
17 | > 0.5 | – | N[C@H](C(=O)N1CCCC1)[C@H]1CC[C@@H](NC(=O)[C@@H]2CCCN2C(=O)OCc2ccccc2)CC1 [Example 3, (2S)-2-[cis-4-(1-(1S)-amino-2-oxo-2-pyrrolidin-1-yl-ethyl)-cyclohexylcarbamoyl]-pyrrolidine-1-carboxylic acid benzyl ester]
18 | 0.1 to 0.5 | – | N[C@H](C(=O)N1CCCC1)[C@H]1CC[C@@H](NC(=O)[C@H]2COCN2C(=O)OCc2ccccc2)CC1 [Example 5, (4R)-4-[cis-4-((1S)-1-amino-2-oxo-2-pyrrolidin-1-yl-ethyl)-cyclohexylcarbamoyl]-oxazolidine-3-carboxylic acid benzyl ester]
19 | > 0.5 | ≤ 1 | N[C@H](C(=O)N1CCCC1)[C@H]1CC[C@@H](NC(=O)[C@@H]2COCN2C(=O)OCc2ccccc2)CC1 [Example 6, (4S)-4-[cis-4-((1S)-1-amino-2-oxo-2-pyrrolidin-1-yl-ethyl)-cyclohexylcarbamoyl]-oxazolidine-3-carboxylic acid benzyl ester]
20 | ≤ 0.1 | – | N[C@H](C(=O)N1CCCC1)[C@H]1CC[C@H](NC(=O)[C@@H]2C[C@@H](O)CN2C(=O)OCc2ccccc2)CC1 [Example 12, (2S,4R)-2-[trans-4-((1S)-1-amino-2-oxo-2-pyrrolidin-1-yl-ethyl)-cyclohexylcarbamoyl]-4-hydroxy-pyrrolidine-1-carboxylic acid benzyl ester]
21 | ≤ 0.1 | – | N[C@H](C(=O)N1CCCC1)[C@H]1CC[C@H](NC(=O)C[C@H]2C(=O)OCN2C(=O)OCc2ccccc2)CC1 [Example 13, (4S)-4-{[trans-4-((1S)-1-amino-2-oxo-2-pyrrolidin-1-yl-ethyl)-cyclohexylcarbamoyl]-methyl}-5-oxo-oxazolidine-3-carboxylic acid benzyl ester]
22 | 0.1 to 0.5 | – | N[C@H](C(=O)N1CCCC1)[C@H]1CC[C@H](NC(=O)[C@@H]2CCC(=O)N2C(=O)OCc2ccccc2)CC1 [Example 14, (2S)-2-[trans-4-(1-(1S)-amino-2-oxo-2-pyrrolidin-1-yl-ethyl)-cyclohexylcarbamoyl]-5-oxo-pyrrolidine-1-carboxylic acid benzyl ester]
23 | ≤ 0.1 | – | N[C@H](C(=O)N1CCCC1)[C@H]1CC[C@H](NC(=O)[C@H]2CCC(=O)N2C(=O)OCc2ccccc2)CC1 [Example 15, (2R)-2-[trans-4-(1-(S)-amino-2-oxo-2-pyrrolidin-1-yl-ethyl)-cyclohexylcarbamoyl]-5-oxo-pyrrolidine-1-carboxylic acid benzyl ester]
24 | ≤ 0.1 | – | N[C@H](C(=O)N1CCCC1)[C@H]1CC[C@H](NC(=O)[C@@H]2COC(=O)N2Cc2ccccc2)CC1 [Example 16, (4S)-3-benzyl-2-oxo-oxazolidine-4-carboxylic acid [trans-4-((1S)-1-Amino-2-oxo-2-pyrrolidin-1-yl-ethyl)-cyclohexyl]-amide]
25 | ≤ 0.1 | – | NC(=O)c1nccnc1C(=O)N[C@H]1CC[C@H]([C@H](N)C(=O)N2CCCC2)CC1 [Example 19, (S)-pyrazine-2,3-dicarboxylic acid amide [trans-4-(1-amino-2-oxo-2-pyrrolidin-1-yl-ethyl)-cyclohexyl]-amide]
26 | ≤ 0.1 | – | N[C@H](C(=O)N1CCCC1)[C@H]1CC[C@H](NC(=O)N2CCC[C@H]2COCc2ccccc2)CC1 [Example 25, 2-benzyloxymethyl-pyrrolidine-1-carboxylic acid [trans-4-((1S)-1-Amino-2-oxo-2-pyrrolidin-1-yl-ethyl)-cyclohexyl]-amide]
27 | ≤ 0.1 | – | CN(CC(=O)N[C@H]1CC[C@H]([C@H](N)C(=O)N2CCC(F)(F)C2)CC1)C(=O)OCc1ccccc1 [Example 30, (S)-({trans-4-[1-amino-2-(3,3-difluoro-pyrrolidin-1-yl)-2-oxo-ethyl]-cyclohexylcarbamoyl}-methyl)-methyl-carbamic acid benzyl ester]
